Experimental data published in patent publication US8580812B2, “Heteroaryl amide analogues as P2X7 antagonists” (H. Lundbeck A/S, priority 2007, dated 2013).

What follows are compounds tested against T1, P2X7 (Homo sapiens, UniProt Q99572) (assay: High Throughput P2X7 Calcium Mobilization Assay (Example 4A), antagonist activity). Conditions: SH-SY5Y cells, 50% decrease in fluorescence response of cells exposed to 80 μM BzATP.
T1 construct: host or cells: SH-SY5Y
T1 sequence (Q99572 1-595): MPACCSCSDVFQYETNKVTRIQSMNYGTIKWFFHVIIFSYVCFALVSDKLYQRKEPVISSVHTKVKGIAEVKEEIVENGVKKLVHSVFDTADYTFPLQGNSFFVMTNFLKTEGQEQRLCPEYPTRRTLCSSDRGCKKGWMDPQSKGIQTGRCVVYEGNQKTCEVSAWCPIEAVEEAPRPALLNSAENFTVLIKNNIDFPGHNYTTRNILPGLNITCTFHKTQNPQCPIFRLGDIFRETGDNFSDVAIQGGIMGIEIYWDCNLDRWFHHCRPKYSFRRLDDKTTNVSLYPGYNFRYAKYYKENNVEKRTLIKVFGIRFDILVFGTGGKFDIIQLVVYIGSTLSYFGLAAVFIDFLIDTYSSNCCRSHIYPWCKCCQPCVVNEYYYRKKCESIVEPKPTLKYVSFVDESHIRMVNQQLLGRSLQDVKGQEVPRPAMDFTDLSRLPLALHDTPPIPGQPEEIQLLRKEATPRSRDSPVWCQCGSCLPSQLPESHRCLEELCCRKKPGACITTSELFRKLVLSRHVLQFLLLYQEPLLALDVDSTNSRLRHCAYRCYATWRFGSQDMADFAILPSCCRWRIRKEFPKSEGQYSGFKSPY
Format: cell-based
Experimental: A. High Throughput P2X7 Calcium Mobilization Assay
SH-SY5Y cells, ATCC Number CRL-2266, (American Type Culture Collection, Manassas, Va.) are cultured under DMEM/High medium supplemented with 10% FBS, and 10 mM HEPES (Invitrogen Corp., Carlsbad, Calif.) in 5% CO2 and at 37° C. One day prior to the experiment, cells are plated at a density of 100,000 cells/well in a 96 well black/clear TC plate (Corning® Costar®, Sigma-Aldrich Co., St. Louis, Mo.). At the beginning of the experiment, the culture medium is removed and cells are incubated with 50 μL of 2.3 μM Fluo-4 AM dye (Invitrogen Corp.) in the assay solution (5 mM KCl, 9.6 mM NaH2PO4.H2O, 25 mM HEPES, 280 mM Sucrose, 5 mM Glucose, and 0.5 mM CaCl2; pH is adjusted to 7.4 with NaOH) for an hour at 37° C. After one hour dye incubation, wells are rinsed once with 50 μL assay solution, and are then incubated for an hour at room temperature with 100 μL assay solution containing the test compound. The final concentration of test compound generally ranges from 1 to 2500 nM; for positive control cells, no test compound is added. After the one hour incubation, plates are transferred to a FLIPR^TETRA instrument (Molecular Devices, Sunnyvale, Calif.) for calcium mobilization analysis.
For determination of antagonist activity, 50 μL of P2X7 agonist (2′(3′)-O-(4-benzoyl-benzoyl)adenosine 5′-triphosephate (BzATP; Sigma-Aldrich) in the assay solution is transferred using the FLIPR into the plate, such that the final agonist concentration is 80 μM (about EC50). In negative control cells, 50 μL of assay solution without agonist is added at this stage. The peak fluorescence signal over a 2 minute period is then measured.
First, the average maximum relative fluorescent unit (RFU) response from the negative control wells (no agonist) is subtracted from the maximum response detected for each of the other experimental wells. Second, average maximum RFU response is calculated for the positive control wells (agonist wells). Then, percent inhibition for each compound tested is calculated using the equation: Percent Inhibition=100−100×(Peak Signal in Test Cells/Peak Signal in Control Cells) The % inhibition data is plotted as a function of test compound concentration and test compound IC50 is determined using, for example, KALEIDAGRAPH software (Synergy Software, Reading, Pa.) best fit of the data to the equation: y=m1*(1/(1+(m2/m0)^m3)) where y is the percent inhibition, m0 is […], m1 is the maximum RFU, m2 corresponds to the test compound IC50 (the concentration required to provide a 50% decrease, relative to the response observed in the presence of agonist and without antagonist) and m3 is the Hill coefficient.

Row | Compound | IC50 [nM]
1 | O=C(NC1CCOCC1)c1cc2c(C(=O)NCC34CC5CC(CC(C5)C3)C4)cccn2n1 [Compound 35, 4-N-(adamantan-1-ylmethyl)-2-N-(tetrahydro-2H-pyran-4-yl)pyrazolo[1,5-a]pyridine-2,4-dicarboxamide] | ≤ 2000
2 | CN(CCF)C(=O)c1cc2c(NC(=O)CC34CC5CC(CC(C5)C3)C4)cccn2n1 [Compound 98, 4-[(adamantan-1-ylacetyl)amino]-N-(2-fluoroethyl)-N-methylpyrazolo[1,5-a]pyridine-2-carboxamide] | ≤ 2000
3 | CN(Cc1ccncc1)C(=O)c1cc2c(C(=O)NCC34CC5CC(CC(C5)C3)C4)cccn2n1 [Compound 33, 4-N-(adamantan-1-ylmethyl)-2-N-methyl-2-N-(pyridin-4-ylmethyl)pyrazolo[1,5-a]pyridine-2,4-dicarboxamide] | ≤ 2000
4 | O=C(O)CC(Cc1ccccc1)c1cc2c(C(=O)NCC34CC5CC(CC(C5)C3)C4)cccn2n1 (centres unmarked) [Compound 107, 3-{4-[(adamantan-1-ylmethyl)carbamoyl]pyrazolo[1,5-a]pyridin-2-yl}-4-phenylbutanoic acid] | ≤ 2000
5 | O=C(CC12CC3CC(CC(C3)C1)C2)Nc1cccn2nc(C(=O)N3CCOCC3)cc12 [Compound 96, 2-adamantan-1-yl-N-[2-(morpholin-4-ylcarbonyl)pyrazolo [1,5-a]pyridin-4-yl]acetamide] | ≤ 2000
6 | CN(C)[C@@H]1CCN(C(=O)c2cc3c(C(=O)NCC45CC6CC(CC(C6)C4)C5)cccn3n2)C1 [Compound 27, N-(adamantan-1-ylmethyl)-2-{[(3R)-3-(dimethylamino)pyrrolidin-1-yl]carbonyl}pyrazolo [1,5-a]pyridine-4-carboxamide] | ≤ 2000
7 | CC(C)CC(CNC(=O)c1cccn2nc(C(=O)N3C[C@@H](C)O[C@@H](C)C3)cc12)c1ccc(C(F)(F)F)cc1 (single isomer, unassigned) [Compound 100] | ≤ 2000
8 | O=C(NCC12CC3CC(CC(C3)C1)C2)c1cccn2nc(C(=O)N3CCn4cnnc4C3)cc12 [Compound 24, N-(adamantan-1-ylmethyl)-2-(5,6-dihydro[1,2,4]triazolo [4,3-a]pyrazin-7(8H)-ylcarbonyl)pyrazolo [1,5-a]pyridine-4-carboxamide] | ≤ 2000
9 | CN(CCF)C(=O)c1cc2c(C(=O)NCC3(c4ccc(Cl)cc4)CCCCC3)cccn2n1 [Compound 85, 4-N-{[1-(4-chlorophenyl)cyclohex-yl]methyl}-2-N-(2-fluoroethyl)-2-N-methylpyrazolo[1,5-a]pyridine-2,4-dicarboxamide] | ≤ 2000
10 | O=C(NCC12CC3CC(CC(C3)C1)C2)c1cccn2nc(CCC3=NCCN3)cc12 [Compound 95, N-(adamantan-1-ylmethyl)-2-[2-(4,5-dihydro-1H-imidazol-2-yl)ethyl]pyrazolo[1,5-a]pyridine-4-carboxamide] | ≤ 2000
11 | COCCNC(=O)c1cc2c(C(=O)NCC34CC5CC(CC(C5)C3)C4)cccn2n1 [Compound 42, 4-N-(adamantan-1-ylmethyl)-2-N-(2-methoxyethyl)pyrazolo [1,5-a]pyridine-2,4-dicarboxamide] | ≤ 2000
12 | O=C(Cc1cc2c(C(=O)NCC34CC5CC(CC(C5)C3)C4)cccn2n1)NCCF [Compound 59, N-(adamantan-1-ylmethyl)-2-{2-[(2-fluoroethyl)amino]-2-oxoethyl}pyrazolo[1,5-a]pyridine-4-carboxamide] | ≤ 2000
13 | O=C(O)c1ccc(-c2cc3c(C(=O)NCC45CC6CC(CC(C6)C4)C5)cccn3c2)cc1 [Compound 108, 4-{8-[(adamantan-1-ylmethyl)carbamoyl]indolizin-2-yl}benzoic acid] | ≤ 2000
14 | O=C(NCC1(c2ccc(C(F)(F)F)cc2)CCCCC1)c1cccn2nc(C(=O)N3CCOCC3)cc12 [Compound 94, 2-(morpholin-4-ylcarbonyl)-N-({1-[4-(trifluoromethyl)phenyl]cyclohexyl}methyl) pyrazolo[1,5-a]pyridine-4-carboxamide] | ≤ 2000
15 | CCOC(=O)CN(C)C(=O)c1cc2c(C(=O)NCC34CC5CC(CC(C5)C3)C4)cccn2n1 [Compound 23, ethyl N-({4-[(adamantan-1-ylmethyl)carbamoyl]pyrazolo[1,5-a]pyridin-2-yl}carbonyl)-N-methylglycinate] | ≤ 2000
16 | O=C(NCC(F)(F)F)c1cc2c(C(=O)NCC34CC5CC(CC(C5)C3)C4)cccn2n1 [Compound 64, 4-N-(adamantan-1-ylmethyl)-2-N-(2,2,2-trifluoroethyl)pyrazolo [1,5-a]pyridine-2,4-dicarboxamide] | ≤ 2000
17 | CN(CC(F)F)C(=O)Cc1cc2c(C(=O)NCC34CC5CC(CC(C5)C3)C4)cccn2n1 [Compound 78, N-(adamantan-1-ylmethyl)-2-{2-[(2,2-difluoroethyl)(methyl)amino]-2-oxoethyl}pyrazolo[1,5-a]pyridine-4-carboxamide] | ≤ 2000
18 | CN(CC(F)F)C(=O)c1cc2c(C(=O)NCC34CC5CC(CC(C5)C3)C4)cccn2n1 [Compound 75, 4-N-(adamantan-1-ylmethyl)-2-N-(2,2-difluoroethyl)-2-N-methylpyrazolo[1,5-a]pyridine-2,4-dicarboxamide] | ≤ 2000
19 | NC(=O)c1ccc(C(=O)c2ccc3c(C(=O)NCC45CC6CC(CC(C6)C4)C5)cccn23)cc1 [Compound 110, N-(adamantan-1-ylmethyl)-3-(4-carbamoylbenzoyl) indolizine-8-carboxamide] | ≤ 2000
20 | CN(CC(F)(F)F)C(=O)Cc1cc2c(C(=O)NCC34CC5CC(CC(C5)C3)C4)cccn2n1 [Compound 79, N-(adamantan-1-ylmethyl)-2-{2-[methyl(2,2,2-trifluoroethyl)amino]-2-oxoethyl}pyrazolo[1,5-a]pyridine-4-carboxamide] | ≤ 2000
21 | CN(C(=O)c1cc2c(C(=O)NCC34CC5CC(CC(C5)C3)C4)cccn2n1)c1ccncc1 [Compound 39, 4-N-(adamantan-1-ylmethyl)-2-N-methyl-2-N-pyridin-4-ylpyrazolo[1,5-a]pyridine-2,4-dicarboxamide] | ≤ 2000
22 | CC(C)CC(CNC(=O)c1cccn2nc(C(=O)N3CCOC(C)(C)C3)cc12)c1ccc(C(F)(F)F)cc1 (centres unmarked) [Compound 101, 2-[(2,2-dimethylmorpholin-4-yl)carbonyl]-N-{4-methyl-2-[4-(trifluoromethyl)phenyl]pentyl}pyrazolo[1,5-a]pyridine-4-carboxamide] | ≤ 2000
23 | CC(C)CC(CNC(=O)c1cccn2nc(C(=O)N3CC[C@@H](N)C3)cc12)c1ccccc1 (stereo partly drawn) [Compound 45, 2-{[(3R)-3-aminopyrrolidin-1-yl]carbonyl}-N-(4-methyl-2-phenylpentyl)pyrazolo [1,5-a]pyridine-4-carboxamide] | ≤ 2000
24 | N[C@@H]1CCN(C(=O)c2cc3c(C(=O)NCC4(c5ccc(Cl)cc5)CCCCC4)cccn3n2)C1 [Compound 90, 2-{[(3R)-3-aminopyrrolidin-1-yl]carbonyl}-N-{[1-(4-chlorophenyl)cyclohex-yl]methyl}pyrazolo[1,5-a]pyridine-4-carboxamide] | ≤ 2000
25 | O=C(NCC12CC3CC(CC(C3)C1)C2)c1cccn2nc(CN3CCn4cncc4C3)cc12 [Compound 52, N-(adamantan-1-ylmethyl)-2-(5,6-dihydroimidazo[1,5-a]pyrazin-7(8H)-ylmethyl)pyrazolo[1,5-a]pyridine-4-carboxamide] | ≤ 2000
26 | CN(Cc1cnccn1)C(=O)c1cc2c(C(=O)NCC34CC5CC(CC(C5)C3)C4)cccn2n1 [Compound 48, 4-N-(adamantan-1-ylmethyl)-2-N-methyl-2-N-(pyrazin-2-ylmethyl)pyrazolo[1,5-a]pyridine-2,4-dicarboxamide] | ≤ 2000
